The numbers were not newly measured in patent publication US20090155358A1, “PHARMACEUTICAL COMPOSITIONS OF SHORT-ACTING HYPNOTIC AGENTS IN MODIFIED-RELEASE FORMS AND THE […] PREPARE THE MENTIONED FORMULATION” (Gador S.A., priority 2005, published 2009), which cites them from elsewhere.

The target in data set [1] is T1, BZ1 receptor (Homo sapiens, UniProt P14867+P18507).
T1 sequence (P14867 28-456): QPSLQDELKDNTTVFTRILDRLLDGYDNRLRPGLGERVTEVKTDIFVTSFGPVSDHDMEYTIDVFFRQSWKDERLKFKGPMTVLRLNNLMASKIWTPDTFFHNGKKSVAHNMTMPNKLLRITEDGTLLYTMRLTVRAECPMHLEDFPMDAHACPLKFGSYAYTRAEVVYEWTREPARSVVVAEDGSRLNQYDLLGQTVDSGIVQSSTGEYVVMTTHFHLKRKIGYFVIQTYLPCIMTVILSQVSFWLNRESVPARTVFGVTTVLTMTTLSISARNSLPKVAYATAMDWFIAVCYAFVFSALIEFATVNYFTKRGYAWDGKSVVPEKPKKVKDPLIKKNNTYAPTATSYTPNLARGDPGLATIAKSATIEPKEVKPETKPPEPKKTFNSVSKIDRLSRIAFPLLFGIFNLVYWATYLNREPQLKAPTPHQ
T1 sequence (P18507 40-467 limits assumed): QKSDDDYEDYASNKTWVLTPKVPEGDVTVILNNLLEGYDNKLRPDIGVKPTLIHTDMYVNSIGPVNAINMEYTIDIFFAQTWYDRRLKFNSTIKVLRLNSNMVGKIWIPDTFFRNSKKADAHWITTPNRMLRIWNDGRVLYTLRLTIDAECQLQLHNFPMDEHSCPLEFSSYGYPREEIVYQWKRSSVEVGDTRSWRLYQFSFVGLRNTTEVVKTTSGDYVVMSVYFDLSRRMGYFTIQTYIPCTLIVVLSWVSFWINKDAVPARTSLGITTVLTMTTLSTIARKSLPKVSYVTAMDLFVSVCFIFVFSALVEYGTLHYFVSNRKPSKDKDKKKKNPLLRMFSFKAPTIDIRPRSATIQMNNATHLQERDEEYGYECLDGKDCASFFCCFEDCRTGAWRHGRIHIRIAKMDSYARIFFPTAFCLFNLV
T1 sequence (P47870 25-512 partner limits assumed): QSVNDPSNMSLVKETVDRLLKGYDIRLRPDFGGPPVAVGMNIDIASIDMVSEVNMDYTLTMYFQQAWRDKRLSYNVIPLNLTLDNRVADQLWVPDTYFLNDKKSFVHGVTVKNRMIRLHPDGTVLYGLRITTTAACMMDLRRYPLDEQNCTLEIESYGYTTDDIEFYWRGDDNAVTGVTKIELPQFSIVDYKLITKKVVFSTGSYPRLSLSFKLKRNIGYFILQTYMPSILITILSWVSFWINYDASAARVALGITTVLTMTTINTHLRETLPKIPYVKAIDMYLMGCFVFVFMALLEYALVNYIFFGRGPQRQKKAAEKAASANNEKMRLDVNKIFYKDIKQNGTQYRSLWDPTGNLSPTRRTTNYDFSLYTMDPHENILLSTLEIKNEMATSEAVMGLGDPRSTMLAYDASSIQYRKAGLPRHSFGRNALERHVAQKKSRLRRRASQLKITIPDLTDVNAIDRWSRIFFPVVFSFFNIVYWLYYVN
The note with it: in vitro.

Structures can show the parent of a compound that is named as a salt.

With `Cc1ccc(-c2nc3ccc(C)cn3c2CC(=O)N(C)C)cc1` [Zolpidem, N,N,6-trimethyl-2-p-toyl-imidazo[1,2-a]pyridine-3-acetamide], the “affinity for BZ1 receptor, subunits α1/α5” value in data set [1] was “large affinity”.

Turning to `Cc1ccc(-c2nc3ccc(C)cn3c2CC(=O)N(C)C)cc1` [Zolpidem tartrate, N,N,6-trimethyl-2-p-toyl-imidazo[1,2-a]pyridine-3-acetamide], the solubility in alcohol entry (alcohol) was “sparingly soluble”. Further, the “solubility in propylene glycol” value (propylene glycol) is given as “sparingly soluble”. For the setting “water”, the solubility in water result is reported as “sparingly soluble”.
